Bounds are passed on as bounds.

Assay [1] concerns ICR male mice. Briefly: Phenyl-p-quinone (PBQ)-induced writhing experiment using mice. It counts as in vivo. The note with it: orally administered, PBQ (0.02%) intraperitoneally after 1 hour, writhing counted for 10 min. In general terms: Writhing tests count abdominal constrictions after an irritant is injected.
In assay [2] the target is T1, human vanilloid-1 (hVR-1) in hVR-1-HEK293 cell line (Homo sapiens, UniProt Q8NER1).
T1 construct: expressed in transfected cells; host or cells: HEK293 Tet-on strain, doxycycline-induced
Briefly: Inhibitory effect on calcium influx via a vanilloid receptor (capsaicin-stimulated, Fluo-3/AM). It is filed as cell-based. The note with it: hVR-1-HEK293 cells, 1 μM of capsaicin, compounds 0.015˜2000 nM; read-out: I.A. (inhibitory activity), IC50 on intracellular calcium influx. In short, it runs like this:
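Doxycycline-induced (1 μg/mL, 2 days) hVR-1-HEK293 cells loaded with Fluo-3/AM for 90 min at 37° C, then stimulated with 1 μM capsaicin. Calcium influx expressed as background-corrected fluorescence relative to positive control, analysed by Hill equation and graded by activity criteria.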
(In general: A change in cytosolic calcium serves as a functional read-out for many receptors and channels.)

T1 sequence (Q8NER1 whole entry): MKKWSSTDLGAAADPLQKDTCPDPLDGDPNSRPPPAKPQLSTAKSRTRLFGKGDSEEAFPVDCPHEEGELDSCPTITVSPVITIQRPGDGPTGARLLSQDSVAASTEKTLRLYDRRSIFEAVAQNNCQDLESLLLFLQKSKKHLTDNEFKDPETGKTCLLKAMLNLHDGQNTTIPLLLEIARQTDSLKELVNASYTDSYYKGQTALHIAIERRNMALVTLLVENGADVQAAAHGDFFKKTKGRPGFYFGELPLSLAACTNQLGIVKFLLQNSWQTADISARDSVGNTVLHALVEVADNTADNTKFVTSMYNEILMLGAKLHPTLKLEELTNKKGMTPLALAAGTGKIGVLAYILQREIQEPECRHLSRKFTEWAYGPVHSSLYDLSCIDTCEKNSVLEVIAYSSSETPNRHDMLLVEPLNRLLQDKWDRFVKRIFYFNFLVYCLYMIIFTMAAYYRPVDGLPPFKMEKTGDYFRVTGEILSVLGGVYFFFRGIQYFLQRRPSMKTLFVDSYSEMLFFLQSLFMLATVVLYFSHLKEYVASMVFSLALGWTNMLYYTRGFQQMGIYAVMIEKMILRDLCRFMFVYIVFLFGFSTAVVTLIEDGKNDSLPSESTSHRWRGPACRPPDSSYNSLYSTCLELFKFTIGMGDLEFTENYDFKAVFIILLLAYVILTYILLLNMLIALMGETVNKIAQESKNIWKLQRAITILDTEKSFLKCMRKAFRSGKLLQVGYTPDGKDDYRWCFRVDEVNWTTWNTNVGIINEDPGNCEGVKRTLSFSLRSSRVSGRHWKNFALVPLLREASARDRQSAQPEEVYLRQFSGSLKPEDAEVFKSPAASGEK

Take `CCc1ccc(N2c3cccc(-c4nc5c(Cl)cc(C(F)(F)F)cc5[nH]4)c3OC[C@@H]2CO)nc1` [Example 80, [(S)-8-(4-chloro-6-trifluoromethyl-1H-benzimidazol-2-yl)-4-(5-ethyl-pyridin-2-yl)-3,4-dihydro-2H-benzo[1,4]oxazin-3-yl]-methanol]: the “I.A. (inhibitory activity), % inhibition rate of writhing” value in assay [1] is given as “+++ (51-80%)”. Further, in assay [2], the IC50 (usually the concentration that inhibits the measured activity by half) was less than 20 nM.
As for `CCc1ccc(N2c3cccc(-c4nc5c(Br)cc(C(F)(F)F)cc5[nH]4)c3OC[C@@H]2CO)nc1` [Example 81, [(S)-8-(4-bromo-6-trifluoromethyl-1H-benzimidazol-2-yl)-4-(5-ethyl-pyridin-2-yl)-3,4-dihydro-2H-benzo[1,4]oxazin-3-yl]-methanol], in assay [1], the “I.A. (inhibitory activity), % inhibition rate of writhing” value is “+++ (51-80%)”. Also, the IC50 in assay [2] is less than 20 nM.
The corresponding values for `CCc1ccc(N2c3cccc(-c4nc5ccc(OC(F)(F)F)cc5[nH]4)c3OC[C@@H]2CO)nc1` [Example 82, [(S)-4-(5-ethyl-pyridin-2-yl)-8-(6-trifluoromethoxy-1H-benzimidazol-2-yl)-3,4-dihydro-2H-benzo[1,4]oxazin-3-yl]-methanol] are “+++ (51-80%)” and 20 to 100 nM.
On to `CCc1ccc(N2c3cccc(-c4nc5c(F)cc(Br)cc5[nH]4)c3OC[C@@H]2CO)nc1` [Example 85, [(S)-8-(6-bromo-4-fluoro-1H-benzimidazol-2-yl)-4-(5-ethyl-pyridin-2-yl)-3,4-dihydro-2H-benzo[1,4]oxazin-3-yl]-methanol], for which the “I.A. (inhibitory activity), % inhibition rate of writhing” value in assay [1] is reported as “+++ (51-80%)”. Further, in assay [2], the IC50 fell in the range of 20 to 100 nM.
The corresponding values for `CCc1ccc(N2c3cccc(-c4nc5c(F)cc(F)cc5[nH]4)c3OC[C@@H]2CO)nc1` [Example 86, [(S)-8-(4,6-difluoro-1H-benzimidazol-2-yl)-4-(5-ethyl-pyridin-2-yl)-3,4-dihydro-2H-benzo[1,4]oxazin-3-yl]-methanol] are “+++ (51-80%)” and less than 20 nM.
The corresponding values for `CCc1ccc(N2c3cccc(-c4nc5ccc(C#N)cc5[nH]4)c3OC[C@@H]2CO)nc1` [Example 87, 2-[(S)-4-(5-ethyl-pyridin-2-yl)-3-hydroxymethyl-3,4-dihydro-2H-benzo[1,4]oxazin-8-yl]-3H-benzimidazol-5-carbonitrile] are “+++ (51-80%)” and less than 20 nM.
In the case of `COC[C@H]1COc2c(-c3nc4ccc(C(C)(C)C)cc4[nH]3)cccc2N1c1ccc(C)cn1` [Example 88, (S)-8-(6-tert-butyl-1H-benzimidazol-2-yl)-3-methoxymethyl-4-(5-methyl-pyridin-2-yl)-3,4-dihydro-2H-benzo[1,4]oxazine], in assay [1], the “I.A. (inhibitory activity), % inhibition rate of writhing” value is reported as “++ (20˜50%)”. Moreover, the IC50 in assay [2] is less than 20 nM.
The like results for `COC[C@H]1COc2c(-c3nc4ccc(Br)cc4[nH]3)cccc2N1c1ccc(C)cn1` [Example 89, (S)-8-(6-bromo-1H-benzimidazol-2-yl)-3-methoxymethyl-4-(5-methyl-pyridin-2-yl)-3,4-dihydro-2H-benzo[1,4]oxazine] were, in that order, “+++ (51-80%)” and less than 20 nM.
For the molecule `COC[C@H]1COc2c(-c3nc4ccc(C(F)(F)F)cc4[nH]3)cccc2N1c1ccc(C)cn1` [Example 90, (S)-3-methoxymethyl-4-(5-methyl-pyridin-2-yl)-8-(6-trifluoromethyl-1H-benzimidazol-2-yl)-3,4-dihydro-2H-benzo[1,4]oxazine], the “I.A. (inhibitory activity), % inhibition rate of writhing” value in assay [1] is “+++ (51-80%)”. Besides, the IC50 in assay [2] is less than 20 nM.
For the molecule `COC[C@H]1COc2c(-c3nc4ccc(Cl)cc4[nH]3)cccc2N1c1ccc(C)cn1` [Example 91, (S)-3-methoxymethyl-4-(5-methyl-pyridin-2-yl)-8-(6-chloro-1H-benzimidazol-2-yl)-3,4-dihydro-2H-benzo[1,4]oxazine], the “I.A. (inhibitory activity), % inhibition rate of writhing” value in assay [1] is recorded as “++ (20˜50%)”. Besides, the IC50 in assay [2] was less than 20 nM.
The corresponding values for `COC[C@H]1COc2c(-c3nc4c(Cl)cc(C(F)(F)F)cc4[nH]3)cccc2N1c1ccc(C)cn1` [Example 92, (S)-8-(4-chloro-6-trifluoromethyl-1H-benzimidazol-2-yl)-3-methoxymethyl-4-(5-methyl-pyridin-2-yl)-3,4-dihydro-2H-benzo[1,4]oxazine] are “++ (20˜50%)” and less than 20 nM.
The like results for `COC[C@H]1COc2c(-c3nc4c(Br)cc(C(F)(F)F)cc4[nH]3)cccc2N1c1ccc(C)cn1` [Example 93, (S)-8-(4-bromo-6-trifluoromethyl-1H-benzimidazol-2-yl)-3-methoxymethyl-4-(5-methyl-pyridin-2-yl)-3,4-dihydro-2H-benzo[1,4]oxazine] were, in that order, “++ (20˜50%)” and less than 20 nM.
The like results for `COC[C@H]1COc2c(-c3nc4c(F)cc(Br)cc4[nH]3)cccc2N1c1ccc(C)cn1` [Example 94, (S)-8-(6-bromo-4-fluoro-1H-benzimidazol-2-yl)-3-methoxymethyl-4-(5-methyl-pyridin-2-yl)-3,4-dihydro-2H-benzo[1,4]oxazine] were, in that order, “+++ (51-80%)” and less than 20 nM.
On to `COC[C@H]1COc2c(-c3nc4cc(Cl)c(Cl)cc4[nH]3)cccc2N1c1ccc(C)cn1` [Example 95, (S)-8-(5,6-dichloro-1H-benzimidazol-2-yl)-3-methoxymethyl-4-(5-methyl-pyridin-2-yl)-3,4-dihydro-2H-benzo[1,4]oxazine], for which the “I.A. (inhibitory activity), % inhibition rate of writhing” value in assay [1] is “+++ (51-80%)”. Besides, the IC50 in assay [2] is less than 20 nM.
With `COC[C@H]1COc2c(-c3nc4c(C(F)(F)F)cc(C(F)(F)F)cc4[nH]3)cccc2N1c1ccc(C)cn1` [Example 96, (S)-8-(4,6-bis-trifluoromethyl-1H-benzimidazol-2-yl)-3-methoxymethyl-4-(5-methyl-pyridin-2-yl)-3,4-dihydro-2H-benzo[1,4]oxazine], the “I.A. (inhibitory activity), % inhibition rate of writhing” value in assay [1] is reported as “++++ (>80%)”. The IC50 in assay [2] was less than 20 nM.
The like results for `COC[C@H]1COc2c(-c3nc4c(Br)cc(Br)cc4[nH]3)cccc2N1c1ccc(C)cn1` [Example 97, (S)-8-(4,6-dibromo-1H-benzimidazol-2-yl)-3-methoxymethyl-4-(5-methyl-pyridin-2-yl)-3,4-dihydro-2H-benzo[1,4]oxazine] were, in that order, “++ (20˜50%)” and less than 20 nM.
With `COC[C@H]1COc2c(-c3nc4ccc(F)cc4[nH]3)cccc2N1c1ccc(C)cn1` [Example 98, (S)-8-(6-fluoro-1H-benzimidazol-2-yl)-3-methoxymethyl-4-(5-methyl-pyridin-2-yl)-3,4-dihydro-2H-benzo[1,4]oxazine], in assay [1], the “I.A. (inhibitory activity), % inhibition rate of writhing” value is listed as “++ (20˜50%)”. Besides, the IC50 in assay [2] fell in the range of 20 to 100 nM.
The corresponding values for `COC[C@H]1COc2c(-c3nc4ccc(OC(F)(F)F)cc4[nH]3)cccc2N1c1ccc(C)cn1` [Example 99, (S)-3-methoxymethyl-4-(5-methyl-pyridin-2-yl)-8-(6-trifluoromethoxy-1H-benzimidazol-2-yl)-3,4-dihydro-2H-benzo[1,4]oxazine] are “++++ (>80%)” and 20 to 100 nM.

Values taken from patent US8362012B2, “Benzoxazine benzimidazole derivative, a pharmaceutical composition comprising the same, and a use thereof” (Daewoong Pharmaceutical Co., Ltd., priority 2008, dated 2013).
